Blank lines part the entries; values can stand above or below the sequence they belong to.
Biological target: T1, MyD88^TIR (Homo sapiens, UniProt Q99836)
T1 construct: MyD88 (residues 148–296); 6xHis; made in house; host or cells: E. coli BL21 (DE3)
Assay: T‐Surf phage library (P8 and P3) selection against MyD88^TIR, four rounds, NGS read counts
Type: binding
Settings: for P3_MyD88 Rank (after) / P3_MyD88 Rank (before): P3 library; for P8_MyD88 Rank (after) / P8_MyD88 Rank (before): P8 library; for Population: P8_MyD88 pool: P8 T-Surf phage library, 4th round of selection against MyD88 TIR, share of NGS reads
Outline: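 Read counts come from NGS of phage pools after the fourth selection round, barcoded by 20-cycle PCR and filtered for quality ≥30. Each round: phage incubated 1 h at RT on immobilised TIR protein (5 µg mL^−1, BSA-blocked), washed, HCl-eluted and amplified in E. coli TG1.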

[1] = P3_MyD88: rank by count after grouping
[2] = P3_MyD88: rank by count before grouping
[3] = selection against MyD88, rank after grouping
[4] = selection against MyD88, rank before grouping
[5] = selection against MyD88, rank by count after grouping
[6] = selection against MyD88, rank by count before grouping
[7] = P8_MyD88: rank by count after grouping
[8] = P8_MyD88: rank by count before grouping
[9] = selection against MyD88 TIR, rank by count after grouping
[10] = selection against MyD88 TIR, rank by count before grouping
[11] = 4R selection against MyD88, rank after grouping
[12] = 4R selection against MyD88, rank before grouping
[13] = P8_MyD88: rank by NGS read count after grouping
[14] = P8_MyD88: rank by NGS read count before grouping

T1 sequence (Q99836 148-296): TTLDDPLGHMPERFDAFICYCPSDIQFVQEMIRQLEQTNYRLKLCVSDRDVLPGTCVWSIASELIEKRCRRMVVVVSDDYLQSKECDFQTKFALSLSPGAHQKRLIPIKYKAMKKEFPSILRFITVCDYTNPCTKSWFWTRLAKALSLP

Sequence: KWFWDKLKYALPHRYEP
Rank (after) [1]: 128
Rank (before) [2]: 790

Sequence: KWLWEKRTCGHSRNTA
P3_MyD88 Rank (after) [5]: 676
P3_MyD88 Rank (before) [6]: 3585

Sequence: LAANEIRKEMKTLATI
P3_MyD88 Rank (after) [5]: 680
P3_MyD88 Rank (before) [6]: 2326

Sequence: LADALERYGIMFIIDK
Rank (after) [7]: 184
Rank (before) [8]: 236

Sequence: LAIIGLIGSILWALK
P8_MyD88 Rank (after) [9]: 210
P8_MyD88 Rank (before) [10]: 492

Sequence: LEANDSLFWDRLLYSLHVTE
Rank (after) [7]: 179
Rank (before) [8]: 214

Sequence: LEANDSLFWDRLYY
Rank (after) [7]: 403
Rank (before) [8]: 1189

Sequence: LEYRWIDWEYFVGLED
Rank (after) [13]: 886
Rank (before) [14]: 3357

Sequence: LFWANLRAALQGDLPY
Rank (after) [7]: 130
Rank (before) [8]: 143
Population: 0.0116%

Sequence: LGFNWMDWEYFVGIEG
P8_MyD88 Rank (after) [11]: 671
P8_MyD88 Rank (before) [12]: 3216

Sequence: LGTHEISKEMKIFATI
P3_MyD88 Rank (after) [3]: 571
P3_MyD88 Rank (before) [4]: 2323

Sequence: LGYDWIVWAYFVGIED
Rank (after) [13]: 894
Rank (before) [14]: 3219

Sequence: LGYHCMDWEYFVGIED
Rank (after) [7]: 390
Rank (before) [8]: 3228

Sequence: LGYHGIDWVYFGGIED
P8_MyD88 Rank (after) [3]: 565
P8_MyD88 Rank (before) [4]: 3316

Sequence: LGYHGLIGSILWALK
P8_MyD88 Rank (after) [11]: 618
P8_MyD88 Rank (before) [12]: 3317

Sequence: LGYHLIVWEYFVGIED
P8_MyD88 Rank (after) [5]: 744
P8_MyD88 Rank (before) [6]: 3227

Sequence: LGYHWEYWVYFVGIED
Rank (after) [13]: 1000
Rank (before) [14]: 3237

Sequence: LGYHWFDWVYFVGIED
P8_MyD88 Rank (after) [3]: 523
P8_MyD88 Rank (before) [4]: 3329

Sequence: LGYHWIDLGYFVGIED
P8_MyD88 Rank (after) [5]: 767
P8_MyD88 Rank (before) [6]: 3249

Sequence: LGYHWIDWENLVGFED
P8_MyD88 Rank (after) [11]: 630
P8_MyD88 Rank (before) [12]: 3283

Sequence: LGYHWIDWEYFEGIAD
Rank (after) [13]: 928
Rank (before) [14]: 3268

Sequence: LGYHWIDWEYFV
Population: 0.0274%

Sequence: LGYHWIDWEYFVGIEDPIT
P8_MyD88 Rank (after) [11]: 660
P8_MyD88 Rank (before) [12]: 3261

Sequence: LGYHWIDWEYYVGIEN
Rank (after) [13]: 992
Rank (before) [14]: 3275

Sequence: LGYHWIDWEYYVGTED
Rank (after) [7]: 440
Rank (before) [8]: 3301

Sequence: LGYHWIEWEDFVVIED
Rank (after) [13]: 872
Rank (before) [14]: 3293

Sequence: LGYHWIGWEYCVGIED
P8_MyD88 Rank (after) [3]: 482
P8_MyD88 Rank (before) [4]: 3246

Sequence: LGYHWIVWEYFVGIDD
Rank (after) [7]: 421
Rank (before) [8]: 3244

Sequence: LGYHWIVWEYLVGIKD
P8_MyD88 Rank (after) [11]: 652
P8_MyD88 Rank (before) [12]: 3245

Sequence: LGYHWKEWEHFVGIED
Rank (after) [13]: 1028
Rank (before) [14]: 3310

Sequence: LGYHWLDWEYFVSIED
Rank (after) [7]: 451
Rank (before) [8]: 3240

Sequence: LGYHWMEWEYVVGIED
Rank (after) [13]: 960
Rank (before) [14]: 3299

Sequence: LGYHWMGWEYFVGIED
P8_MyD88 Rank (after) [3]: 560
P8_MyD88 Rank (before) [4]: 3298

Sequence: LGYHWTDWEYFVGIEA
Rank (after) [7]: 429
Rank (before) [8]: 3305

Sequence: LGYHWVDWEDLLSIEE
P8_MyD88 Rank (after) [5]: 730
P8_MyD88 Rank (before) [6]: 3235

Sequence: LGYHWVDWEYCVGIED
Rank (after) [7]: 479
Rank (before) [8]: 3233

Sequence: LGYHWVDWGCFVGIAD
Rank (after) [13]: 958
Rank (before) [14]: 3232

Sequence: LGYHWVVWEYFVGIED
P8_MyD88 Rank (after) [11]: 594
P8_MyD88 Rank (before) [12]: 3231

Sequence: LGYISIVRGYFVGIER
P8_MyD88 Rank (after) [3]: 486
P8_MyD88 Rank (before) [4]: 3337

Sequence: LGYKRIDWEYFVGIED
P8_MyD88 Rank (after) [3]: 573
P8_MyD88 Rank (before) [4]: 3354

Sequence: LGYPWIDWEYYVGIED
P8_MyD88 Rank (after) [3]: 519
P8_MyD88 Rank (before) [4]: 3226

Sequence: LGYQGIDGEYFVGIED
P8_MyD88 Rank (after) [11]: 617
P8_MyD88 Rank (before) [12]: 3328

Sequence: LGYQLIDWEYFVGIEN
Rank (after) [13]: 937
Rank (before) [14]: 3319

Sequence: LGYQWIAGEYFVGIED
Rank (after) [13]: 1021
Rank (before) [14]: 3320

Sequence: LGYQWIDWEFFVGIED
P8_MyD88 Rank (after) [5]: 756
P8_MyD88 Rank (before) [6]: 3321

Sequence: LGYQWIEWEYFVGIED
P8_MyD88 Rank (after) [9]: 250
P8_MyD88 Rank (before) [10]: 1186

Sequence: LGYQWNDWEYFVGIED
Rank (after) [13]: 957
Rank (before) [14]: 3326

Sequence: LGYQWNEWEYLVGIEE
P8_MyD88 Rank (after) [3]: 538
P8_MyD88 Rank (before) [4]: 3327

Sequence: LGYRWGDWEYFVGIEE
Rank (after) [13]: 1017
Rank (before) [14]: 3222

Sequence: LGYYWNDWEYVVGIEE
Rank (after) [13]: 884
Rank (before) [14]: 3218

Sequence: LIRAPSVHDFRGFVGI
P3_MyD88 Rank (after) [11]: 672
P3_MyD88 Rank (before) [12]: 2369

Sequence: LKAESCRQALEKSGKR
P3_MyD88 Rank (after) [11]: 631
P3_MyD88 Rank (before) [12]: 2533

Sequence: LKCCYPYFWSKLRYAM
P3_MyD88 Rank (after) [11]: 612
P3_MyD88 Rank (before) [12]: 2460

Sequence: LKCGEPYFWSKLRYAM
Rank (after) [1]: 137
Rank (before) [2]: 2407

Sequence: LKCGEPYFWSKLRYSI
P3_MyD88 Rank (after) [3]: 578
P3_MyD88 Rank (before) [4]: 2406

Sequence: LKEESWRRAQEKAGKL
P3_MyD88 Rank (after) [3]: 531
P3_MyD88 Rank (before) [4]: 2536

Sequence: LKGGDPYFWSKLRYTM
Rank (after) [1]: 159
Rank (before) [2]: 2531

Further lines, results first:

P3_MyD88 Rank (after) [3]: 490
P3_MyD88 Rank (before) [4]: 3584
Sequence: KWLWDKLIYARSRNPH

P8_MyD88 Rank (after) [11]: 635
P8_MyD88 Rank (before) [12]: 3374
Sequence: LEANDSLFWDRLIRMIE

P3_MyD88 Rank (after) [3]: 563
P3_MyD88 Rank (before) [4]: 2328
Sequence: LEWGEPIVLEKQRSVT

Rank (after) [7]: 111
Rank (before) [8]: 119
Population: 0.02%
Sequence: LFWDRLIYAVSDVASA

P8_MyD88 Rank (after) [3]: 569
P8_MyD88 Rank (before) [4]: 3208
Sequence: LFWDRLLYSLHVTE

P8_MyD88 Rank (after) [5]: 717
P8_MyD88 Rank (before) [6]: 3311
Sequence: LGYHCHDREYFVGIED

Rank (after) [13]: 1020
Rank (before) [14]: 3318
Sequence: LGYHRIDWEYCVGIED

Rank (after) [7]: 426
Rank (before) [8]: 3247
Sequence: LGYHWIAWECFVGIED

P8_MyD88 Rank (after) [9]: 242
P8_MyD88 Rank (before) [10]: 3250
Sequence: LGYHWIDWAYFVGIEE

P8_MyD88 Rank (after) [5]: 750
P8_MyD88 Rank (before) [6]: 3251
Sequence: LGYHWIDWAYSVGIED

Rank (after) [13]: 919
Rank (before) [14]: 3280
Sequence: LGYHWIDWEDFVGIEN

P8_MyD88 Rank (after) [9]: 235
P8_MyD88 Rank (before) [10]: 599
Sequence: LGYHWIDWEYFVALK

Rank (after) [13]: 874
Rank (before) [14]: 3264
Sequence: LGYHWIDWEYFVGIK

Population: 0.00655%
Sequence: LGYHWIDWEYFVGSED

P8_MyD88 Rank (after) [9]: 231
P8_MyD88 Rank (before) [10]: 409
Sequence: LGYHWIDWSILWALK

P8_MyD88 Rank (after) [3]: 547
P8_MyD88 Rank (before) [4]: 3345
Sequence: LGYHWLNWESFVGIED

P8_MyD88 Rank (after) [3]: 489
P8_MyD88 Rank (before) [4]: 3306
Sequence: LGYHWNDGEYFVGIKD

P8_MyD88 Rank (after) [3]: 536
P8_MyD88 Rank (before) [4]: 3307
Sequence: LGYHWNDREYFLDIED

P8_MyD88 Rank (after) [9]: 280
P8_MyD88 Rank (before) [10]: 3302
Sequence: LGYHWRDWEYFVGLED

P8_MyD88 Rank (after) [11]: 644
P8_MyD88 Rank (before) [12]: 3332
Sequence: LGYQCIDWEYFVDIED

P8_MyD88 Rank (after) [3]: 548
P8_MyD88 Rank (before) [4]: 3225
Sequence: LGYRLMFWDYFVGIVD

Rank (after) [7]: 400
Rank (before) [8]: 3224
Sequence: LGYRWIVWEYFVGIED

Rank (after) [7]: 462
Rank (before) [8]: 3223
Sequence: LGYRWLDGEYFGGIED

Rank (after) [1]: 460
Rank (before) [2]: 2535
Sequence: LKEEHCHQALEKAGKL

Rank (after) [1]: 385
Rank (before) [2]: 2529
Sequence: LKGGDSYFWSKQPYAL

Source: PMC11714206, “Massively Parallel Screening of Toll/Interleukin‐1 Receptor (TIR)‐Derived Peptides Reveals Multiple Toll‐Like Receptors (TLRs)‐Targeting Immunomodulatory Peptides” (Advanced Science, 2024)
